{
  "source": "paper PMC8743659",
  "about": "“C1632 suppresses the migration and proliferation of non‐small‐cell lung cancer cells involving LIN28 and FGFR1 pathway” (Journal of Cellular and Molecular Medicine, 2021)",
  "key": {"LIN28B": {"test_system": "LIN28B", "experiment": "Western blot of LIN28B after FGFR1 inhibition", "type": "cell-based, human", "conditions": "Ponatinib, A549 and A549R cell lines", "method": "(§1) The total cell protein was extracted and denaturized at 95°C for 10 min. Samples were separated in SDS‐PAGE gel, then transferred to a PVDF membrane. Then this membrane was blocked with 5% non‐fat milk (solved in TBST) for 2.5 h at room temperature. Blots were probed with relevant primary antibodies against FGFR1 (CST), p‐FGFR1 (CST), MAPK (CST), p‐MAPK (CST), FAK (CST), p‐FAK (CST), MMP‐9 (CST), LIN28B (CST), GAPDH (CST), and β‐actin (proteintech) overnight at 4°C, respectively. Then the lanes were detected with HRP‐conjugated secondary antibodies and visualized using WESTAR SUPERNOVA kit (CYANAGEN)."}, "FGFR1": {"test_system": "FGFR1", "experiment": "Western blot of FGFR1 signalling in NSCLC cells", "type": "cell-based, human", "conditions": "Ponatinib, A549 and A549R cell lines", "method": "as §1, with “Then this membrane was blocked with 5% non‐fat milk (solved in TBST) for 2.5 h at room temperature.” left out, “([…]).” for “(CYANAGEN).”"}},
  "data": [
    {"compound": "Cc1ccc(C(=O)Nc2ccc(CN3CCN(C)CC3)c(C(F)(F)F)c2)cc1C#Cc1cnc2cccnn12", "note": "[Ponatinib, reference compound]", "values": [
      {"measurement": "expression of LIN28B", "setting": "LIN28B", "result": "suppressing the expression of LIN28B"},
      {"measurement": "effect on FGFR1", "setting": "FGFR1", "result": "inhibited FGFR1"}
    ]}
  ]
}
